One experiment deals with T1, BCR-NTRK3 BaF3 cells (Homo sapiens, UniProt Q16288).
T1 construct: fused on or other part: P11274 (Breakpoint cluster region protein)
Kind of experiment: BaF3 BCR-NTRK3 cell proliferation assay (ATPlite). The following applies: read-out: Inhibition of Cell Proliferation IC50, BCR/BaF3 TrkC. Format: cell-based. In a few lines: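 Cells are plated overnight: BaF3 at 10,000/well in G418 medium without WEHI/IL-3, MV-4-11 at 25,000/well in IMDM with 10% FBS. An 8-point 1:3 compound titration (10 μM top) is then added, and plates are incubated 3 days at 37 °C before ATPlite readout and IC50 determination.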

For the next experiment, the system named is SKNSH cells. Nature of the experiment: SKNSH (human neuroblastoma) cell proliferation assay (ATPlite). The class given is cell-based. The note with it: SK-N-SH, read-out: Inhibition of Cell Proliferation IC50, SKNSH. In a few lines: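 Fms/Trk inhibitor efficacy was tested by proliferation of SKNSH neuroblastoma cells. After 3 days of compound exposure at 37° C. in 5% CO2, 20 μL per well of ATPlite 1 step reagent was added, plates sat 10 minutes at room temperature, and luminescence, proportional to cell number, was read on a Safire reader to derive IC50.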

Another experiment deals with T2, CYP1A2 (Homo sapiens, UniProt P05177).
T2 sequence (P05177 1-516): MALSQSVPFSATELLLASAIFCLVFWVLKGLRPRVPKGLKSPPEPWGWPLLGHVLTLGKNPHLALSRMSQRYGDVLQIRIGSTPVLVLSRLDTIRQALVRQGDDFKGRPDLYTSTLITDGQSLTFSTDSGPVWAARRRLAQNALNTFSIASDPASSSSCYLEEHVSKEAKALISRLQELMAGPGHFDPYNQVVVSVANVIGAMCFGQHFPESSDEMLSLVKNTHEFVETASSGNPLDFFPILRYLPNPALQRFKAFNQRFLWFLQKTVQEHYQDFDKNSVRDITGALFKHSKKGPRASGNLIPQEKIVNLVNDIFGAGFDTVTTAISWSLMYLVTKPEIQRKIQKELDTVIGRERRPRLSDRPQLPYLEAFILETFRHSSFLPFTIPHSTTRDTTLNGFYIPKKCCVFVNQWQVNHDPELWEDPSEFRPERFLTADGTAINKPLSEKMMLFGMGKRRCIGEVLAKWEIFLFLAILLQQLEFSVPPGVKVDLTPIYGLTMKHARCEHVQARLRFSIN
Nature of the experiment: CYP1A2 inhibition (fluorescent substrate CEC). Format: in vitro ADME. The note with it: read-out: Cyp IC50 1A2. Put shortly: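 Test compound titrated 1:1 across ten concentrations; metabolite fluorescence measured after 37 °C incubation of 15 min (CYP1A2), 30 min (CYP2C19, CYP2D6) or 45 min (CYP2C9). IC50 from signal versus concentration.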

In another experiment the target is CYP3A4(BFC) (Homo sapiens, UniProt P08684). Nature of the experiment: CYP3A4(BFC) inhibition. The class given is in vitro ADME. The note with it: CYP3A4, substrate BFC; read-out: Cyp IC50 3A4(BFC). In a few lines: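 This fluorescence assay tracks how test compounds reduce CYP3A4 turnover of BFC, with enzyme and substrate from BD Biosciences. A 10-point 1:1 dilution series in cofactor mix (1.3% NADPH Regeneration Solution A, 1.04% Solution B, 5% acetonitrile, 0.05% DMSO) was dispensed at 10 μL into 384 well plates, preincubated 10 minutes at 37° C, then incubated 30 min and read on a Tecan Safire 2.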
Chain of CYP3A4(BFC) (P08684 whole entry): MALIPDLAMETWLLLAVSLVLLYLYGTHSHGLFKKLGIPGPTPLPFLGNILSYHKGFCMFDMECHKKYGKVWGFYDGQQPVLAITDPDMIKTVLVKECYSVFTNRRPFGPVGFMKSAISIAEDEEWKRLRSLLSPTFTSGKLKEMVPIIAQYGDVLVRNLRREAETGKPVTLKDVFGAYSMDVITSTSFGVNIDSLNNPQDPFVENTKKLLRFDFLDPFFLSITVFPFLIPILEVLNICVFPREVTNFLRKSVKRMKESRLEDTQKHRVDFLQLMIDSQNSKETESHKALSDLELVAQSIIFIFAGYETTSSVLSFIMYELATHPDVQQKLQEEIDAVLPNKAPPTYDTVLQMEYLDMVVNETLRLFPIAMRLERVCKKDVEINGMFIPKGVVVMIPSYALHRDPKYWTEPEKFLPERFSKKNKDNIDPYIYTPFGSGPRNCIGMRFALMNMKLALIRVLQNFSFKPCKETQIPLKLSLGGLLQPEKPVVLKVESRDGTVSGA

T1 sequence (Q16288 whole entry, the tested form may be a part): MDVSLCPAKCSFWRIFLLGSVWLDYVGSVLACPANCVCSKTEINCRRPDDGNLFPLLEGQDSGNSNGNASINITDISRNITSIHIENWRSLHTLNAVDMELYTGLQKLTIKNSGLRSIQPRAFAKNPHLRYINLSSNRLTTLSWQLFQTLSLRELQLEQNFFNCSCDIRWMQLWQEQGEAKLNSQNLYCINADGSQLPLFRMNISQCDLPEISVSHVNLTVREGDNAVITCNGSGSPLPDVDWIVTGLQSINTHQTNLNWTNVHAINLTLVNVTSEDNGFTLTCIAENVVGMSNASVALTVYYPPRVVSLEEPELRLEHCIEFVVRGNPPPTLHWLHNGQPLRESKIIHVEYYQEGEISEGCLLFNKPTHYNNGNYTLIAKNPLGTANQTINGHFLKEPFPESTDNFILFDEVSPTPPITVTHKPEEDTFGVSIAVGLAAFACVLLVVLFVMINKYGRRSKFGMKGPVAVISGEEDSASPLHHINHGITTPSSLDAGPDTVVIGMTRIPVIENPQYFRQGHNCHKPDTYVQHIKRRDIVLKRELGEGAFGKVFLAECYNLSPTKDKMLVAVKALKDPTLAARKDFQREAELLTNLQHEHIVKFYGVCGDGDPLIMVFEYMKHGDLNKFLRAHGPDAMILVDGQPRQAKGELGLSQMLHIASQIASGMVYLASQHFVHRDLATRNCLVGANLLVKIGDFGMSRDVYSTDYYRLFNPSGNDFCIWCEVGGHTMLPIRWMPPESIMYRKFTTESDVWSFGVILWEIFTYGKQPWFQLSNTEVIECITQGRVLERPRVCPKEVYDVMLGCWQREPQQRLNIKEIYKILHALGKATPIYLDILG

For the compound `COc1ccc(Nc2ccc(Cc3c[nH]c4ncc(C)cc34)c(F)n2)cn1` [Compound P-3019, [6-fluoro-5-(5-methyl-1H-pyrrolo[2,3-b]pyridin-3-ylmethyl)-pyridin-2-yl]-(6-methoxy-pyridin-3-yl)-amine], the IC50 is under 0.1 µM on BCR-NTRK3 BaF3 cells, under 10 µM in the experiment with SKNSH cells, over 10 µM at CYP1A2 and over 10 µM at CYP3A4(BFC).
Take `CCOc1ccc(Nc2ccc(Cc3c[nH]c4ncc(C)cc34)c(F)n2)cn1` [Compound P-3039, (6-ethoxy-pyridin-3-yl)-[6-fluoro-5-(5-methyl-1H-pyrrolo[2,3-b]pyridin-3-ylmethyl)-pyridin-2-yl]-amine]: the IC50 was under 0.1 µM at BCR-NTRK3 BaF3 cells, over 1 µM in the experiment on SKNSH cells, over 10 µM on CYP1A2 and over 10 µM on CYP3A4(BFC).
On to `COc1ccc(Nc2ccc(C(=O)c3c[nH]c4ncc(C)cc34)c(F)n2)cn1` [Compound P-3040, [2-Fluoro-6-(6-methoxy-pyridin-3-ylamino)-pyridin-3-yl]-(5-methyl-1H-pyrrolo[2,3-b]pyridin-3-yl)-methanone], for which the IC50 at BCR-NTRK3 BaF3 cells is under 0.01 µM; in the experiment on SKNSH cells it was over 1 µM; at CYP1A2, over 10 µM; at CYP3A4(BFC), over 10 µM.
For the compound `Cc1cnc2[nH]cc(Cc3ccc(Nc4ccc(C)nc4)nc3F)c2c1` [Compound P-3041, [6-Fluoro-5-(5-methyl-1H-pyrrolo[2,3-b]pyridin-3-ylmethyl)-pyridin-2-yl]-(6-methyl-pyridin-3-yl)-amine], the IC50 on BCR-NTRK3 BaF3 cells is under 0.1 µM; with SKNSH cells it was over 1 µM; at CYP1A2, over 10 µM; on CYP3A4(BFC), 5 to 10 µM.
With `Cc1cnc2[nH]cc(C(=O)c3ccc(Nc4ccc(C)nc4)nc3F)c2c1` [Compound P-3043, [2-Fluoro-6-(6-methyl-pyridin-3-ylamino)-pyridin-3-yl]-(5-methyl-1H-pyrrolo[2,3-b]pyridin-3-yl)-methanone], the IC50 on BCR-NTRK3 BaF3 cells is under 0.1 µM; in the experiment on SKNSH cells it was under 1 µM; on CYP1A2 it was over 10 µM; at CYP3A4(BFC), over 10 µM.
Turning to `Cc1ccc(Nc2ccc(C(=O)c3c[nH]c4ncc(Cl)cc34)c(F)n2)cn1` [Compound P-3044, (5-Chloro-1H-pyrrolo[2,3-b]pyridin-3-yl)-[2-fluoro-6-(6-methyl-pyridin-3-ylamino)-pyridin-3-yl]-methanone], the IC50 on BCR-NTRK3 BaF3 cells is under 0.1 µM; in the experiment on SKNSH cells it was over 1 µM; on CYP1A2 it was over 10 µM; at CYP3A4(BFC) it was over 10 µM.
Turning to `COc1ccc(Nc2ccc(Cc3c[nH]c4ncnc(OC)c34)c(F)n2)cn1` [Compound P-4001, [6-Fluoro-5-(4-methoxy-7H-pyrrolo[2,3-d]pyrimidin-5-ylmethyl)-pyridin-2-yl]-(6-methoxy-pyridin-3-yl)-amine], the IC50 at BCR-NTRK3 BaF3 cells was under 0.01 µM; in the experiment with SKNSH cells it was under 1 µM; on CYP1A2 it was over 10 µM; at CYP3A4(BFC), over 10 µM.
With `COc1ccc(Nc2ccc(Cc3c[nH]c4ncnc(C)c34)c(F)n2)cn1` [Compound P-4002, [6-Fluoro-5-(4-methyl-7H-pyrrolo[2,3-d]pyrimidin-5-ylmethyl)-pyridin-2-yl]-(6-methoxy-pyridin-3-yl)-amine], the IC50 on BCR-NTRK3 BaF3 cells is under 0.1 µM; in the experiment on SKNSH cells it was under 0.1 µM; at CYP1A2 it was over 10 µM; on CYP3A4(BFC), over 10 µM.
Take `COc1ncnc2[nH]cc(Cc3ccc(Nc4ccc(Cl)nc4)nc3F)c12` [Compound P-4003, (6-Chloro-pyridin-3-yl)-[6-fluoro-5-(4-methoxy-7H-pyrrolo[2,3-d]pyrimidin-5-ylmethyl)-pyridin-2-yl]-amine]: the IC50 is under 0.1 µM at BCR-NTRK3 BaF3 cells, over 1 µM in the experiment with SKNSH cells, over 10 µM on CYP1A2 and over 10 µM at CYP3A4(BFC).
As for `COc1ncnc2[nH]cc(Cc3ccc(Nc4ccc(C5CC5)nc4)nc3F)c12` [Compound P-4004, (6-Cyclopropyl-pyridin-3-yl)-[6-fluoro-5-(4-methoxy-7H-pyrrolo[2,3-d]pyrimidin-5-ylmethyl)-pyridin-2-yl]-amine], the IC50 at BCR-NTRK3 BaF3 cells is under 0.01 µM; in the experiment with SKNSH cells, under 1 µM; on CYP1A2, over 10 µM; on CYP3A4(BFC), over 10 µM.
`CCOc1ccc(Nc2ccc(Cc3c[nH]c4ncnc(OC)c34)c(F)n2)cn1` [Compound P-4005, (6-Ethoxy-pyridin-3-yl)-[6-fluoro-5-(4-methoxy-7H-pyrrolo[2,3-d]pyrimidin-5-ylmethyl)-pyridin-2-yl]-amine]: the IC50 on BCR-NTRK3 BaF3 cells is under 0.01 µM; in the experiment with SKNSH cells, under 1 µM; at CYP1A2 it was over 10 µM; at CYP3A4(BFC), over 10 µM.
Regarding `CCOc1ccc(Nc2ccc(Cc3c[nH]c4ncnc(C)c34)c(F)n2)cn1` [Compound P-4006, (6-Ethoxy-pyridin-3-yl)-[6-fluoro-5-(4-methyl-7H-pyrrolo[2,3-d]pyrimidin-5-ylmethyl)-pyridin-2-yl]-amine], the IC50 on BCR-NTRK3 BaF3 cells is under 0.01 µM; in the experiment on SKNSH cells, under 0.1 µM; on CYP1A2 it was over 10 µM; at CYP3A4(BFC), over 10 µM.
On to `CCc1ccc(Nc2ccc(Cc3c[nH]c4ncnc(OC)c34)c(F)n2)cn1` [Compound P-4007, (6-Ethyl-pyridin-3-yl)-[6-fluoro-5-(4-methoxy-7H-pyrrolo[2,3-d]pyrimidin-5-ylmethyl)-pyridin-2-yl]-amine], for which the IC50 on BCR-NTRK3 BaF3 cells was under 0.01 µM; in the experiment on SKNSH cells, under 1 µM; on CYP1A2, over 10 µM; on CYP3A4(BFC), over 10 µM.
For `CCOc1ccc(Nc2ccc(Cc3c[nH]c4ncnc(OCCOC)c34)c(F)n2)cn1` [Compound P-4008, (6-Ethoxy-pyridin-3-yl)-{6-fluoro-5-[4-(2-methoxy-ethoxy)-7H-pyrrolo[2,3-d]pyrimidin-5-ylmethyl]-pyridin-2-yl}-amine], the IC50 on BCR-NTRK3 BaF3 cells was under 0.1 µM; with SKNSH cells, over 1 µM; at CYP1A2, over 10 µM; on CYP3A4(BFC), 5 to 10 µM.
`CCc1ccc(Nc2ccc(Cc3c[nH]c4ncnc(C)c34)c(F)n2)cn1` [Compound P-4009, (6-Ethyl-pyridin-3-yl)-[6-fluoro-5-(4-methyl-7H-pyrrolo[2,3-d]pyrimidin-5-ylmethyl)-pyridin-2-yl]-amine]: the IC50 was under 0.01 µM at BCR-NTRK3 BaF3 cells, under 0.1 µM with SKNSH cells, over 10 µM at CYP1A2 and over 10 µM at CYP3A4(BFC).
`COc1ncnc2[nH]cc(Cc3ccc(Nc4ccc(C)nc4)nc3F)c12` [Compound P-4010, [6-Fluoro-5-(4-methoxy-7H-pyrrolo[2,3-d]pyrimidin-5-ylmethyl)-pyridin-2-yl]-(6-methyl-pyridin-3-yl)-amine]: the IC50 on BCR-NTRK3 BaF3 cells is under 0.1 µM; in the experiment with SKNSH cells, under 1 µM; at CYP1A2 it was over 10 µM; at CYP3A4(BFC), over 10 µM.
On to `CCn1cc(Nc2ccc(Cc3c[nH]c4ncnc(OC)c34)c(F)n2)cn1` [Compound P-4011, (1-Ethyl-1H-pyrazol-4-yl)-[6-fluoro-5-(4-methoxy-7H-pyrrolo[2,3-d]pyrimidin-5-ylmethyl)-pyridin-2-yl]-amine], for which the IC50 at BCR-NTRK3 BaF3 cells was under 1 µM; in the experiment with SKNSH cells, over 1 µM; on CYP1A2 it was over 10 µM; on CYP3A4(BFC), 5 to 10 µM.
On the same counts, the results for `CCOc1ncnc2[nH]cc(Cc3ccc(Nc4cnn(CC)c4)nc3F)c12` [Compound P-4012, [5-(4-Ethoxy-7H-pyrrolo[2,3-d]pyrimidin-5-ylmethyl)-6-fluoro-pyridin-2-yl]-(1-ethyl-1H-pyrazol-4-yl)-amine] are under 0.1 µM, over 1 µM, over 10 µM and over 10 µM.
Take `CCn1cc(Nc2ccc(Cc3c[nH]c4ncnc(C)c34)c(F)n2)cn1` [Compound P-4013, (1-Ethyl-1H-pyrazol-4-yl)-[6-fluoro-5-(4-methyl-7H-pyrrolo[2,3-d]pyrimidin-5-ylmethyl)-pyridin-2-yl]-amine]: the IC50 at BCR-NTRK3 BaF3 cells was under 1 µM; in the experiment on SKNSH cells, over 1 µM; on CYP1A2, over 10 µM; on CYP3A4(BFC), over 10 µM.
